The values that follow come from patent US6984649B1, “Pyridine derivatives” (Bayer Aktiengesellschaft, priority 2000, dated 2006).

Broadly, the IC50 is the point on the concentration scale where inhibition reaches its midpoint.

In the assay the target is T1, human IKK-β (Homo sapiens, UniProt O14920).
T1 construct: A cDNA fragment encoding human IKK-β open reading frame was generated by PCR; His tag (from pcDNA3.1/His C); made in house; host or cells: Sf21 insect cells (baculovirus); substrate made in E. coli
T1 sequence (O14920 1-756): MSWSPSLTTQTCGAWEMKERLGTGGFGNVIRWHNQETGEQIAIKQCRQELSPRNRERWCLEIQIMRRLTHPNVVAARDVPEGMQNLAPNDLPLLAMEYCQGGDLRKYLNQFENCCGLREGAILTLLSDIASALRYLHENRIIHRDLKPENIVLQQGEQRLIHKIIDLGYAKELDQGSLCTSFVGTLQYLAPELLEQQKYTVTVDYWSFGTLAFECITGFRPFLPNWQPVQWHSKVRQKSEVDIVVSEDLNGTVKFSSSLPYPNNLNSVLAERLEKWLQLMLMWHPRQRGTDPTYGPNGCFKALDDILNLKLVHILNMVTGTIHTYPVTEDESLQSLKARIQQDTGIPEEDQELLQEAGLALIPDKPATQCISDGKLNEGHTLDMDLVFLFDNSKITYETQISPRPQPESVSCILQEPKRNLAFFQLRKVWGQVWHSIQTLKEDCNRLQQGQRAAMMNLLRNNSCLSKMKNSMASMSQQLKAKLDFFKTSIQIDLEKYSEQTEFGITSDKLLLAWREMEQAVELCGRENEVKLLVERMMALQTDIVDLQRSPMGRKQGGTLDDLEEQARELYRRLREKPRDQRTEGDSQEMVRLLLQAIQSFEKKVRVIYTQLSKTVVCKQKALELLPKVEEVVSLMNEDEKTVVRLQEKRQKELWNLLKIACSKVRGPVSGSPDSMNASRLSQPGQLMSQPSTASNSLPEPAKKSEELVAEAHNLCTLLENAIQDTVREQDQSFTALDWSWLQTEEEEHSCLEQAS
Put plainly: IKK-β kinase inhibitory assay. The format is biochemical. The note with it: compounds as yielded by solid phase synthesis, purity about 40 to 90%, read-out: In vitro activity grade (In vitro IC50). The essentials: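 Radiometric read-out: streptavidin capture of 33P-labelled bio-GST-IκBα(1-54), 0.2 μM, after a 2 h room-temperature reaction started with ATP/[γ-33P]ATP. Enzyme was recombinant His-tagged human IKK-β expressed in Sf21 insect cells, used at 0.6 μg/ml in Tris-HCl pH 7.6/MgCl2 kinase buffer. Compounds added in 2.5% DMSO.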
Turning to `O=C1Nc2nc(-c3c(O)cccc3OCc3ccccc3)cc(C3CCCNC3)c2CO1` (stereo not shown) [Example 18-10], the IC50 is less than 500 nM. Turning to `COC(=O)c1ccc(COc2cccc(O)c2-c2cc(C3CCCNC3)c(C#N)c(N)n2)cc1` (stereo not shown) [Example 2-30], the IC50 was less than 500 nM. In the case of `CC(C)(C)COC(=O)NCc1c(C2CCCNC2)cc(-c2c(O)cccc2OCC2CC2)nc1N` (stereo not shown) [Example 23-10], the IC50 was less than 500 nM. On to `CCCOc1cccc(O)c1-c1cc(C2CCCNC2)c(C#N)c(N)n1` (stereo not shown) [Example 2-55], for which the IC50 was less than 500 nM.

`CC(C)OC(=O)NCc1c(C2CCCNC2)cc(-c2c(O)cccc2OCC2CC2)nc1N` (stereo not shown) [Example 23-08]: the IC50 is less than 500 nM. Regarding `N#Cc1c(C2CCCNC2)cc(-c2c(O)cccc2OCCC(c2ccccc2)c2ccccc2)nc1N` (stereo not shown) [Example 2-46], the IC50 was less than 500 nM. On to `O=C1Nc2nc(-c3ncccc3O)cc(C3CCCNC3)c2CO1` (stereo not shown) [Example 18-08], for which the IC50 is less than 500 nM.

Consider `CC(C)Oc1cccc(O)c1-c1cc(C2CCCNC2)c(C#N)c(N)n1` (stereo not shown) [Example 2-54], for which the IC50 is less than 500 nM. For `Nc1nc(-c2c(O)cccc2OCC2CC2)cc(C2CCCNC2)c1CNC(=O)Nc1ccccc1` (stereo not shown) [Example 23-14], the IC50 was less than 500 nM. As for `CC(C)COC(=O)N1Cc2c(C3CCCNC3)cc(-c3c(O)cccc3OCC3CC3)nc2NC1=O` (stereo not shown) [Example 24-06], the figure is less than 500 nM; as for `CCCOc1cccc(O)c1-c1cc(C2CCCNC2)c2c(n1)NC(=O)OC2` (stereo not shown) [Example 18-11], less than 500 nM. On to `COc1cccc(O)c1-c1cc(C2CCCNC2)c(C#N)c(N)n1` (stereo not shown) [Example 2-57], for which the half-inhibitory concentration (IC50) is less than 500 nM. For `Cc1ccccc1COc1cccc(O)c1-c1cc(C2CCCNC2)c(C#N)c(N)n1` (stereo not shown) [Example 2-06], the IC50 is less than 500 nM. As to `CCCOc1cccc(O)c1-c1cc(C2CCNCC2)c2c(n1)NC(=O)OC2` [Example 18-14], the IC50 is less than 500 nM.

In the case of `CN(C)C(=O)NCc1c(C2CCCNC2)cc(-c2c(O)cccc2OCC2CC2)nc1N` (stereo not shown) [Example 23-11], the IC50 was less than 500 nM. Regarding `N#Cc1c(C2CCCNC2)cc(-c2c(O)cccc2OCc2ccccn2)nc1N` (stereo not shown) [Example 2-42], the IC50 is less than 500 nM. For `N#Cc1c(C2CCCNC2)cc(-c2c(O)cccc2OCc2ccccc2F)nc1N` (stereo not shown) [Example 2-37], the IC50 was less than 500 nM. The result for `N#Cc1c(C2CCCNC2)cc(-c2c(O)cccc2OCc2ccccc2-c2ccccc2)nc1N` (stereo not shown) [Example 2-22] reads less than 500 nM. Turning to `O=C1Nc2nc(-c3c(O)cccc3OCc3ccccc3)cc(C3CCNCC3)c2CO1` [Example 18-16], the IC50 was less than 500 nM. As for `N#Cc1c(C2CCCNC2)cc(-c2c(O)cccc2OCc2ccc(Br)cc2)nc1N` (stereo not shown) [Example 2-39], the figure is less than 500 nM; as for `CCCCCOc1cccc(O)c1-c1cc(C2CCCNC2)c(C#N)c(N)n1` (stereo not shown) [Example 2-60], less than 500 nM. In the case of `N#Cc1c(C2CCCN(CCc3ccccc3)C2)cc(-c2ccccc2O)nc1N` (stereo not shown) [Example 3-06], the half-maximal inhibitory concentration (IC50) fell in the range of 500 to 2000 nM.

`CC(C)(C)COc1cccc(O)c1-c1cc(C2CCCNC2)c(CO)c(N)n1` (stereo not shown) [Example 12-04]: the IC50 was less than 500 nM.

Regarding `COc1ccc(CN2CCCC(c3cc(-c4c(O)cccc4O)nc(N)c3C#N)C2)cc1` (stereo not shown) [Example 3-07], the concentration for half-maximal inhibition (IC50) is less than 500 nM. For the molecule `CC(C)(C)c1ccc(COc2cccc(O)c2-c2cc(C3CCCNC3)c(C#N)c(N)n2)cc1` (stereo not shown) [Example 2-31], the IC50 is less than 500 nM. As for `NC(=O)N1Cc2c(C3CCCNC3)cc(-c3c(O)cccc3OCC3CC3)nc2NC1=O` (stereo not shown) [Example 24-10], the IC50 is less than 500 nM. Take `O=C1Nc2nc(-c3c(O)cccc3OCC3CC3)cc(C3CCNCC3)c2CO1` [Example 18-13]: the IC50 was less than 500 nM.

On to `N#Cc1c(C2CCCNC2)cc(-c2c(O)cccc2OCc2ccc(F)cc2F)nc1N` (stereo not shown) [Example 2-26], for which the IC50 was less than 500 nM. For the molecule `N#Cc1c(C2CCCNC2)cc(-c2c(O)cccc2OCc2ccc(-c3ccccc3)cc2)nc1N` (stereo not shown) [Example 2-33], the IC50 is less than 500 nM. With `N#Cc1c(C2CCCN(Cc3ccccc3)C2)cc(-c2ccccc2O)nc1N` (stereo not shown) [Example 3-05], the IC50 is less than 500 nM. On to `CCCN1CCCC(c2cc(-c3ccccc3O)nc(N)c2C#N)C1` (stereo not shown) [Example 3-04], for which the IC50 is less than 500 nM. Consider `N#Cc1c(C2CCCNC2)cc(-c2c(O)cccc2OCc2csc3ccc(Cl)cc23)nc1N` (stereo not shown) [Example 2-47], for which the IC50 was less than 500 nM. Take `N#Cc1c(C2CCCNC2)cc(-c2c(O)cccc2OCc2ncon2)nc1N` (stereo not shown) [Example 2-48]: the IC50 is less than 500 nM. `CC(C)COc1cccc(O)c1-c1cc(C2CCCNC2)c(C#N)c(N)n1` (stereo not shown) [Example 2-59]: the IC50 is less than 500 nM.

With `C=CCOc1cccc(O)c1-c1cc(C2CCCNC2)c(C#N)c(N)n1` (stereo not shown) [Example 2-56], the IC50 is less than 500 nM. As for `N#Cc1c(C2CCNCC2)cc(-c2c(O)cccc2OCc2ccccc2)nc1N` [Example 2-23], the IC50 was less than 500 nM. As for `N#Cc1c(C2CCCNC2)cc(-c2c(O)cccc2OCc2ccccc2F)nc1N` (stereo not shown) [Example 2-25], the figure is less than 500 nM; as for `N#Cc1c(C2CCCNC2)cc(-c2c(O)cccc2OCc2cccc(F)c2)nc1N` (stereo not shown) [Example 2-27], less than 500 nM; as for `CC(C)CCCOc1cccc(O)c1-c1cc(C2CCNCC2)c2c(n1)NC(=O)OC2` [Example 18-15], less than 500 nM. Consider `O=C1Nc2nc(-c3c(O)cccc3O)cc(C3CCNCC3)c2CO1` [Example 18-12], for which the IC50 lay in the range of 500 to 2000 nM. For the molecule `N#Cc1c(C2CCNCC2)cc(-c2c(O)cccc2OCCc2ccccc2)nc1N` [Example 2-52], the IC50 is less than 500 nM. On to `N#Cc1c(CCN)cc(-c2c(O)cccc2OCc2ccccc2)nc1N` [Example 2-40], for which the IC50 is less than 500 nM. Consider `N#Cc1c(C2CCCNC2)cc(-c2c(O)cccc2OCc2ccc(Cl)c(Cl)c2)nc1N` (stereo not shown) [Example 2-05], for which the half-inhibitory concentration (IC50) was less than 500 nM.

Regarding `Nc1nc(-c2c(O)cccc2OCC2CC2)cc(C2CCNCC2)c1CO` [Example 12-05], the concentration for half-maximal inhibition (IC50) was less than 500 nM. Regarding `NC(=O)NCc1c(C2CCCNC2)cc(-c2c(O)cccc2OCC2CC2)nc1N` (stereo not shown) [Example 23-13], the IC50 was less than 500 nM. Regarding `CCCOc1cccc(O)c1-c1cc(C2CCCNC2)c(CO)c(N)n1` (stereo not shown) [Example 12-03], the IC50 is less than 500 nM. Take `Cc1cc(COc2cccc(O)c2-c2cc(C3CCCNC3)c(C#N)c(N)n2)no1` (stereo not shown) [Example 2-49]: the IC50 is less than 500 nM.

On to `N#Cc1c(C2CCCNC2)cc(-c2c(O)cccc2OCc2cccnc2)nc1N` (stereo not shown) [Example 2-43], for which the IC50 is less than 500 nM.

Consider `Cc1ccc(COc2cccc(O)c2-c2cc(C3CCCNC3)c(C#N)c(N)n2)cc1` (stereo not shown) [Example 2-35], for which the IC50 is less than 500 nM. On to `N#Cc1c(C2CCCNC2)cc(-c2c(O)cccc2OCc2ccc(F)c(F)c2)nc1N` (stereo not shown) [Example 2-29], for which the IC50 is less than 500 nM. In the case of `N#Cc1c(C2CCCNC2)cc(-c2c(O)cccc2OCc2ccc3ccccc3n2)nc1N` (stereo not shown) [Example 2-45], the IC50 is less than 500 nM.

Take `N#Cc1c(C2CCCNC2)cc(-c2c(O)cccc2OCc2ccc(Cl)cc2Cl)nc1N` (stereo not shown) [Example 2-34]: the 50% inhibitory concentration (IC50) is less than 500 nM. Take `N#Cc1c(C2CCCNC2)cc(-c2c(O)cccc2OCCc2ccccc2)nc1N` (stereo not shown) [Example 2-41]: the IC50 was less than 500 nM. On to `CN(C)C(=O)N1Cc2c(C3CCCNC3)cc(-c3c(O)cccc3OCC3CC3)nc2NC1=O` (stereo not shown) [Example 24-08], for which the IC50 is less than 500 nM. For the molecule `CC(=O)NCc1c(C2CCCNC2)cc(-c2ccccc2O)nc1N` (stereo not shown) [Example 23-04], the concentration for half-maximal inhibition (IC50) was less than 500 nM. As for `CCC(=O)NCc1c(C2CCCNC2)cc(-c2ccccc2O)nc1N` (stereo not shown) [Example 23-06], the IC50 lay within 500 to 2000 nM.

`CCCOc1cccc(O)c1-c1cc(C2CCNCC2)c(CO)c(N)n1` [Example 12-06]: the IC50 is less than 500 nM. The result for `N#Cc1c(C2CCCNC2)cc(-c2c(O)cccc2OCC2CCCCC2)nc1N` (stereo not shown) [Example 2-53] reads less than 500 nM. The result for `CC(C)OC(=O)N1Cc2c(C3CCCNC3)cc(-c3c(O)cccc3OCC3CC3)nc2NC1=O` (stereo not shown) [Example 24-05] reads less than 500 nM; that for `N#Cc1c(C2CCCNC2)cc(-c2c(O)cccc2OCc2ccncc2)nc1N` (stereo not shown) [Example 2-44], less than 500 nM. Consider `Nc1nc(-c2ccccc2O)cc(C2CCCNC2)c1CNC(=O)C1CC1` (stereo not shown) [Example 23-05], for which the IC50 is less than 500 nM. As for `CC(C)COC(=O)NCc1c(C2CCCNC2)cc(-c2c(O)cccc2OCC2CC2)nc1N` (stereo not shown) [Example 23-09], the figure is less than 500 nM. As to `N#Cc1c(C2CCCNC2)cc(-c2c(O)cccc2OCc2ccc(F)cc2)nc1N` (stereo not shown) [Example 2-28], the IC50 was less than 500 nM. For the molecule `CCCNC(=O)NCc1c(C2CCCNC2)cc(-c2c(O)cccc2OCC2CC2)nc1N` (stereo not shown) [Example 23-12], the IC50 is less than 500 nM.
